{"source": "patent US9457033B2", "about": "“Steroid alkaloids and uses thereof as antimicrobial agents against electron transport-deficient microbes and as potentiators for antimicrobial agents against pathogenic bacteria” (priority 2011, dated 2016)", "key": {"[1]": {"system": "S. aureus CF9A-L", "assay": "MIC, microdilution in CAMHB 24 h", "type": "cell-based, Staphylococcus aureus", "settings": "CF9A-L; for MIC: Staphylococcus aureus"}, "[2]": {"system": "S. aureus ATCC 29213", "assay": "Time-kill experiments, aminoglycoside alone or with tomatidine (FIGS. 8-10)", "settings": "alone at ≧1×MIC (1 μg/ml); regrowth observed within 24 h; FIG. 9"}, "[3]": {"system": "S. aureus CF35A-L", "assay": "MIC, microdilution in CAMHB 24 h", "type": "cell-based, Staphylococcus aureus", "settings": "CF35A-L; for MIC: Staphylococcus aureus"}, "[4]": {"system": "S. aureus ATCC 43300", "assay": "MIC, microdilution in CAMHB 24 h", "type": "cell-based, Staphylococcus aureus", "settings": "ATCC 43300; for MIC: Staphylococcus aureus"}, "[5]": {"system": "S. aureus CF4B-L", "assay": "MIC, microdilution in CAMHB 24 h", "type": "cell-based, Staphylococcus aureus", "settings": "CF4B-L; for MIC: Staphylococcus aureus, CF4BL"}, "[6]": {"system": "S. aureus CF07-L", "assay": "MIC, microdilution in CAMHB 24 h", "type": "cell-based, Staphylococcus aureus", "settings": "CF07-L; for MIC: Staphylococcus aureus, CF07L"}, "[7]": {"system": "S. aureus ATCC 29213", "assay": "MIC, microdilution in CAMHB 24 h, with or without tomatidine/compound", "type": "cell-based, Staphylococcus aureus", "settings": "for MIC: Staphylococcus aureus"}, "[8]": {"system": "S. aureus CF1A-L", "assay": "MIC, microdilution in CAMHB 24 h", "type": "cell-based, Staphylococcus aureus", "settings": "CF1A-L; for MIC: Staphylococcus aureus, CF1AL"}, "[9]": {"system": "S. aureus Mu50", "assay": "MIC, microdilution in CAMHB 24 h", "type": "cell-based, Staphylococcus aureus", "settings": "for MIC: Staphylococcus aureus"}, "[10]": {"system": "S. aureus CF7A-L", "assay": "MIC, microdilution in CAMHB 24 h", "type": "cell-based, Staphylococcus aureus", "settings": "CF7A-L; for MIC: Staphylococcus aureus, CF7AL, ant(4′)-Ia"}, "[11]": {"settings": "Human (CF lungs), MRSA, read-out: MIC"}, "[12]": {"settings": "8 μg/ml of tomatidine, read-out: MIC +TO"}, "[13]": {"settings": "Human (CF lungs), read-out: MIC"}, "[14]": {"settings": "absence of tomatidine, read-out: MIC −TO"}}, "note": "Where two headings read alike, the source gives them in different places."}
{"smiles": "NC[C@H]1O[C@H](O[C@H]2[C@H](O)[C@@H](O[C@H]3O[C@H](CO)[C@@H](O)[C@H](N)[C@H]3O)[C@H](N)C[C@@H]2N)[C@H](N)C[C@@H]1O", "note": "[Tobramycin, tobramycin]", "values": [{"measurement": "Fold (−TO/+TO)", "setting": "[1]; 8 μg/ml of tomatidine", "result": "4-8 fold"}, {"measurement": "MIC", "setting": "[1]; CF9AL, ant(4′)-Ia, 8 μg/ml of tomatidine, read-out: MIC +TO", "result": "64 to 256", "unit": "µg/mL"}, {"measurement": "MIC", "setting": "[1]; CF9AL, ant(4′)-Ia, absence of tomatidine, read-out: MIC −TO", "result": "512 to 1020", "unit": "µg/mL"}, {"measurement": "MIC", "setting": "[1]; [11]", "result": "512 to 1020", "unit": "µg/mL"}, {"measurement": "time-kill activity alone", "setting": "[2]", "result": "bactericidal"}, {"measurement": "Fold (−TO/+TO)", "setting": "[3]; 8 μg/ml of tomatidine", "result": "8-16 fold"}, {"measurement": "MIC", "setting": "[3]; CF35AL, 8 μg/ml of tomatidine, read-out: MIC +TO", "result": 0.06, "unit": "µg/mL"}, {"measurement": "MIC", "setting": "[3]; CF35AL, absence of tomatidine, read-out: MIC −TO", "result": "0.5 to 1", "unit": "µg/mL"}, {"measurement": "MIC", "setting": "[3]; [11]", "result": "0.5 to 1", "unit": "µg/mL"}, {"measurement": "Fold (−TO/+TO)", "setting": "[4]; 8 μg/ml of tomatidine", "result": "4-8 fold"}, {"measurement": "MIC", "setting": "[4]; ATCC 43300 / MRSA, Human (HA), MRSA, read-out: MIC", "result": "512 to 1020", "unit": "µg/mL"}, {"measurement": "MIC", "setting": "[4]; ATCC43300, 8 μg/ml of tomatidine, read-out: MIC +TO", "result": 128, "unit": "µg/mL"}, {"measurement": "MIC", "setting": "[4]; ATCC43300, absence of tomatidine, read-out: MIC −TO", "result": "512 to 1020", "unit": "µg/mL"}, {"measurement": "Fold (−TO/+TO)", "setting": "[5]; 8 μg/ml of tomatidine", "result": "4-16 fold"}, {"measurement": "MIC", "setting": "[5]; [12]", "result": "0.06 to 0.12", "unit": "µg/mL"}, {"measurement": "MIC", "setting": "[5]; [13]", "result": "0.5 to 1", "unit": "µg/mL"}, {"measurement": "MIC", "setting": "[5]; [14]", "result": "0.5 to 1", "unit": "µg/mL"}, {"measurement": "Fold (−TO/+TO)", "setting": "[6]; 8 μg/ml of tomatidine", "result": "4-8 fold"}, {"measurement": "MIC", "setting": "[6]; [12]", "result": "0.06 to 0.12", "unit": "µg/mL"}, {"measurement": "MIC", "setting": "[6]; [13]", "result": "0.5 to 1", "unit": "µg/mL"}, {"measurement": "MIC", "setting": "[6]; [14]", "result": "0.5 to 1", "unit": "µg/mL"}, {"measurement": "Fold (−TO/+TO)", "setting": "[7]; ATCC 29123, 8 μg/ml of tomatidine", "result": "4-16 fold"}, {"measurement": "Fold (−TO/+TO)", "setting": "[7]; ATCC 29213, tomatidine at 8 μg/ml", "result": "4-8 fold"}, {"measurement": "MIC", "setting": "[7]; ATCC 29123 / ATCC 29213, ATCC 29123, 8 μg/ml of tomatidine, read-out: MIC +TO", "result": "0.03 to 0.06", "unit": "µg/mL"}, {"measurement": "MIC", "setting": "[7]; ATCC 29123 / ATCC 29213, ATCC 29123, absence of tomatidine, read-out: MIC −TO", "result": "0.25 to 0.5", "unit": "µg/mL"}, {"measurement": "MIC", "setting": "[7]; ATCC29213, ATCC 29213, Human (SSTI), read-out: MIC", "result": "0.25 to 0.5", "unit": "µg/mL"}, {"measurement": "MIC", "setting": "[7]; ATCC29213, ATCC 29213, absence of tomatidine, read-out: MIC −TO", "result": "0.25 to 0.5", "unit": "µg/mL"}, {"measurement": "MIC", "setting": "[7]; ATCC29213, ATCC 29213, presence of tomatidine at 8 μg/ml, read-out: MIC +TO", "result": 0.06, "unit": "µg/mL"}, {"measurement": "Fold (−TO/+TO)", "setting": "[8]; 8 μg/ml of tomatidine", "result": "4-16 fold"}, {"measurement": "MIC", "setting": "[8]; [12]", "result": "0.06 to 0.25", "unit": "µg/mL"}, {"measurement": "MIC", "setting": "[8]; [13]", "result": 1, "unit": "µg/mL"}, {"measurement": "MIC", "setting": "[8]; [14]", "result": 1, "unit": "µg/mL"}, {"measurement": "Fold (−TO/+TO)", "setting": "[9]; Mu50, 8 μg/ml of tomatidine", "result": 8, "unit": "fold"}, {"measurement": "MIC", "setting": "[9]; Mu50, aac(6′)-aph(2″), ant(4′)-Ia, 8 μg/ml of tomatidine, read-out: MIC +TO", "result": 128, "unit": "µg/mL"}, {"measurement": "MIC", "setting": "[9]; Mu50, aac(6′)-aph(2″), ant(4′)-Ia, absence of tomatidine, read-out: MIC −TO", "result": 1020, "unit": "µg/mL"}, {"measurement": "MIC", "setting": "[9]; Mu50, Human (SSTI), MRSA, VISA, read-out: MIC", "result": 1020, "unit": "µg/mL"}, {"measurement": "Fold (−TO/+TO)", "setting": "[10]; 8 μg/ml of tomatidine", "result": "2-8 fold"}, {"measurement": "MIC", "setting": "[10]; [12]", "result": "128 to 512", "unit": "µg/mL"}, {"measurement": "MIC", "setting": "[10]; [14]", "result": 1020, "unit": "µg/mL"}]}
